Measurements as given in patent publication US9420796B2 (priority 2013, dated 2016).
Several values for one entry are separate records, joined by “and”; a condition that tells them apart may be missing. Equal entries are not always repeated.

Experiments:
[1] = system: zebra mussels; settings: in vivo; cited from earlier work
[2] = system: adult mussels; parameters: species or system zebra mussels; settings: in vivo

[K+].[O]=[Mn](=[O])(=[O])[O-] [KMnO]
Mortality rate [1]: ≤ 10%

OCl [NaOCl, sodium hypochlorite]
Day of treatment on which complete mortality was observed [2]: 18 days and 23 days
Mortality rate [1]: ≤ 10%
